This is an account of results in PMC4241021 (Nature communications, 2014).

Common to all, as to conditions: labelled compound; 5 mM MgCl2, 50 mM KCl, Tris-HCl pH 8.0, 37 °C
The target in assay [1] is RK2 KorB (Escherichia coli, UniProt P07674).
For assay [2], the target named is ICE1056Fin (Haemophilus influenzae, UniProt A0A8I2XW01).
Assay [3] deals with P1 ParB (Punavirus P1, UniProt Q38420).
P1 ParB, sequence (Q38420 1-333): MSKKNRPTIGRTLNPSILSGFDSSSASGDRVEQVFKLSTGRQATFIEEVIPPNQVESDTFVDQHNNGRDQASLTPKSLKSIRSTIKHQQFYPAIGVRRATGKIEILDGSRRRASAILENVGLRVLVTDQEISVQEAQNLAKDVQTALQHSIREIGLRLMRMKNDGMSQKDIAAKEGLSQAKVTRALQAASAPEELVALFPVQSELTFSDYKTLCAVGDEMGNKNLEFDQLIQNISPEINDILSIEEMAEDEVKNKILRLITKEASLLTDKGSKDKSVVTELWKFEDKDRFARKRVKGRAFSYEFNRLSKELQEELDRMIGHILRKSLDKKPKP

RK2 KorB, sequence (P07674 whole entry): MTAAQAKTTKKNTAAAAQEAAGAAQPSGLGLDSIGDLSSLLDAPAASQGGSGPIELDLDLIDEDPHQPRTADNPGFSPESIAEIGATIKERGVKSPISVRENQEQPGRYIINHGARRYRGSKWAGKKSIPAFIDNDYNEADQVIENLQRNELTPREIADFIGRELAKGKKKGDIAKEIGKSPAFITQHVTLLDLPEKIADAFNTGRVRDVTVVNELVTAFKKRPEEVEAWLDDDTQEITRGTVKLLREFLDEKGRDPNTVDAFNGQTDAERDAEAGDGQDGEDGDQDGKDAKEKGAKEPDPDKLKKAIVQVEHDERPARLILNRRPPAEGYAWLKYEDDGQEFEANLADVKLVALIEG
ICE1056Fin, sequence (A0A8I2XW01 1-185): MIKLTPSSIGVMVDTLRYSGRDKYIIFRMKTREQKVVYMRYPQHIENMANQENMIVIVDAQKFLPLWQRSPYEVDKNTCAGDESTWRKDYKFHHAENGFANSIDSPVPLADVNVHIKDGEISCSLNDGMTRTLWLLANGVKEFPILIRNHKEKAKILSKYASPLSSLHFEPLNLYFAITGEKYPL

Take `Nc1ncnc2c1ncn2[C@@H]1O[C@H](COP(=O)(O)OP(=O)(O)OP(=O)(O)O)[C@@H](O)[C@H]1O` [ATP]: the “TLC ATPase assay, γ-phosphate release” value in assay [1] is “ICE1056Fin, P1 ParB and RK2 KorB also exhibited comparable ATPase activity”; in assay [2] it was “ICE1056Fin, P1 ParB and RK2 KorB also exhibited comparable ATPase activity”; in assay [3], “ICE1056Fin, P1 ParB and RK2 KorB also exhibited comparable ATPase activity”.
